target: T1, MAGL (Homo sapiens, UniProt Q99685); test: 2-AG assay: MAGL inhibition followed by hydrolysis of 2-arachidonoylglycerol to arachidonic acid, mass spectrometry; type: biochemical; conditions: measured in 2-AG assay (footnote [a]); substrate 2-arachidonoylglycerol 8 μM, 30 min at RT
T1 sequence (Q99685 1-303): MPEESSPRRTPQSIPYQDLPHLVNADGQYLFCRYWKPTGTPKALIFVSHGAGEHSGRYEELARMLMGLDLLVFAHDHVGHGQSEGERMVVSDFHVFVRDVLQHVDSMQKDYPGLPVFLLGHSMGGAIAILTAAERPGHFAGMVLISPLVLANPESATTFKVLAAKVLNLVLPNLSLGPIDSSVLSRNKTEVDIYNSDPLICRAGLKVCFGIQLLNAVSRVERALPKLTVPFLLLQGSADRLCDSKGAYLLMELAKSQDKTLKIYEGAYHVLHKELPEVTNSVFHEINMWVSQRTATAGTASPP
Excerpt: Alternatively, compounds were profiled for MAGL inhibitory activity by determining the enzymatic activity by following the hydrolysis of the natural substrate, 2-arachidonoylglycerol, resulting in arachidonic acid, which can be followed by mass spectrometry. This assay is hereinafter abbreviated “2-AG assay”.
Detection by mass spectrometry in the present 2-AG assay has the advantage over known optical assays that the natural enzyme substrate, 2-arachidonoylglycerol, can be used instead of structurally unrelated compounds needed for optical readouts (such as 4-NPA). It thereby delivers more relevant data for activity determination, reduces false positives and generally adds to data quality. In addition, this assay reduces the analysis time from about 10 minutes per sample with standard methods to under 10 seconds per sample. This allows for using the present 2-AG assay in a method for high throughput screening of compounds for their MAGL inhibitory activity.
The 2-AG assay was carried out in 384 well assay plates (PP, Greiner Cat #784201) in a total volume of 20 μL. Compound dilutions were made in 100% DMSO (VWR Chemicals 23500.297) in a polypropylene plate in 3-fold dilution steps to give a final concentration range in the assay from 12.5 μM to […]. 0.25 μL compound dilutions (100% DMSO) were added to 9 μL MAGL in assay buffer (50 mM TRIS (GIBCO, 15567-027), 1 mM EDTA (Fluka, 03690-100 mL), 0.01% (v/v) Tween. After shaking, the plate was incubated for 15 min at RT. To start the reaction, 10 μL 2-arachidonoylglycerol in assay buffer was added. The final concentrations in the assay was […] and 8 μM 2-arachidonoylglyerol. After shaking and 30 min incubation at RT, the reaction was quenched by the addition of 40 μL of acetonitrile containing 4 μM of d8-arachidonic acid. The amount of arachidonic acid was traced by an online SPE system (Agilent Rapidfire) coupled to a triple quadrupole mass spectrometer (Agilent 6460). A C18 SPE cartridge (G9205A) was used in an acetonitrile/water liquid setup. The mass spectrometer was operated in negative electrospray mode following the mass transitions 303.1→259.1 for arachidonic acid and 311.1→267.0 for d8-arachidonic acid. The activity of the compounds was calculated based on the ratio of intensities [arachidonic acid/d8-arachidonic acid].
In a preferred embodiment, the method for determining the MAGL inhibitory activity of a test compound according to the invention, comprises: • (i) providing a solution of a test compound; • (ii) adding the solution of step (i) to a solution of MAGL; • (iii) shaking the mixture obtained from step (ii); • (iv) incubating the mixture obtained from step (iii); • (v) adding a solution of 2-arachidonoylglycerol; • (vi) incubating the mixture obtained from step (v); • (vii) adding a solution of d8-arachidonic acid; and • (viii) determining the ratio of intensities arachidonic acid/d8-arachidonic acid using a mass spectrometer.

Question: How did the IC50 turn out when `Cc1cccc(Cl)c1C#CC1CN(C(=O)N2CC[C@@H]3OCC(=O)N[C@@H]3C2)C1` [Example 184, (4aR,8aS)-6-[3-[2-(2-Chloro-6-methylphenyl)ethynyl]azetidine-1-carbonyl]-4,4a,5,7,8,8a-hexahydropyrido[4,3-b][1,4]oxazin-3-one] was run?
Answer: 6 nM

Question: `O=C1CO[C@H]2CCN(C(=O)N3CC(C#Cc4ccc(OC(F)F)cc4)C3)C[C@H]2N1` [Example 177, (4aR,8aS)-6-[3-[2-[4-(Difluoromethoxy)phenyl]ethynyl]azetidine-1-carbonyl]-4,4a,5,7,8,8a-hexahydropyrido[4,3-b][1,4]oxazin-3-one] was tested. Which IC50 did it give?
Answer: 22 nM

Question: With `Cc1ccccc1C#CC1CCN(C(=O)N2CC[C@@H]3OCC(=O)N[C@@H]3C2)CC1` [Example 194, (4aR,8aS)-6-(4-(o-Tolylethynyl)piperidine-1-carbonyl)hexahydro-2H-pyrido[4,3-b][1,4]oxazin-3(4H)-one] as the molecule, how does the IC50 read?
Answer: 31 nM

Question: `O=C1CO[C@H]2CCN(C(=O)N3CC(C#Cc4csc(Cl)c4)C3)C[C@H]2N1` [Example 188, (4aR,8aS)-6-[3-[2-(5-Chlorothiophen-3-yl)ethynyl]azetidine-1-carbonyl]-4,4a,5,7,8,8a-hexahydropyrido[4,3-b][1,4]oxazin-3-one] was tested. Which IC50 did it give?
Answer: 13 nM

Question: Which IC50 does the source give for `O=C1CO[C@H]2CCN(C(=O)N3CC(C[S+]([O-])c4ccc(C(F)(F)F)cc4Cl)C3)C[C@H]2N1` (single isomer, unassigned) [Example 155] here?
Answer: 1980 nM

Question: For `Cc1cccc(C)c1C#CC1CN(C(=O)N2CC[C@@H]3OCC(=O)N[C@@H]3C2)C1` [Example 169, (4aR,8aS)-6-[3-[2-(2,6-Dimethylphenyl)ethynyl]azetidine-1-carbonyl]-4,4a,5,7,8,8a-hexahydropyrido[4,3-b][1,4]oxazin-3-one], which IC50 is on record?
Answer: 4 nM

Question: `O=C1CO[C@H]2CCN(C(=O)N3CC(CNC(c4ccccc4)C(F)(F)F)C3)C[C@H]2N1` (stereo partly drawn) [Example 71, (4aR,8aS)-6-(3-(((2,2,2-Trifluoro-1-phenylethyl)amino)methyl)azetidine-1-carbonyl)hexahydro-2H-pyrido[4,3-b][1,4]oxazin-3(4H)-one] was tested. Which IC50 did it give?
Answer: 105 nM

Question: Which IC50 does the source give for `O=C1CO[C@H]2CCN(C(=O)N3CC(CS(=O)(=O)c4ccc(C(F)(F)F)cc4Cl)C3)C[C@H]2N1` [Example 152, (4aR,8aS)-6-[3-[[2-Chloro-4-(trifluoromethyl)phenyl]sulfonylmethyl]azetidine-1-carbonyl]-4,4a,5,7,8,8a-hexahydropyrido[4,3-b][1,4]oxazin-3-one] here?
Answer: 655 nM

Question: For `O=C1CO[C@H]2CCN(C(=O)N3CC(SCc4ccc(C(F)(F)F)cc4F)C3)C[C@H]2N1` [Example 156, (4aR,8aS)-6-[3-[[2-Fluoro-4-(trifluoromethyl)phenyl]methylsulfanyl]azetidine-1-carbonyl]-4,4a,5,7,8,8a-hexahydropyrido[4,3-b][1,4]oxazin-3-one], which IC50 is on record?
Answer: 7 nM

Question: For `N#Cc1cccc(Cl)c1C#CC1CN(C(=O)N2CC[C@@H]3OCC(=O)N[C@@H]3C2)C1` [Example 176, 2-[2-[1-[(4aR,8aS)-3-oxo-4,4a,5,7,8,8a-Hexahydropyrido[4,3-b][1,4]oxazine-6-carbonyl]azetidin-3-yl]ethynyl]-3-chlorobenzonitrile], which IC50 is on record?
Answer: 50 nM

Question: How did the IC50 turn out when `O=C1CO[C@H]2CCN(C(=O)N3CCC(C#Cc4cnccc4Cl)CC3)C[C@H]2N1` [Example 126, (+)-(4aR,8aS)-6-[4-[2-(4-Chloropyridin-3-yl)ethynyl]piperidine-1-carbonyl]-4,4a,5,7,8,8a-hexahydropyrido[4,3-b][1,4]oxazin-3-one] was run?
Answer: 306 nM

Question: Which IC50 does the source give for `O=C1CO[C@H]2CCN(C(=O)N3CCC(C#Cc4cccc(Cl)c4)CC3)C[C@H]2N1` [Example 129, (+)-(4aR,8aS)-6-[4-[2-(3-Chlorophenyl)ethynyl]piperidine-1-carbonyl]-4,4a,5,7,8,8a-hexahydropyrido[4,3-b][1,4]oxazin-3-one] here?
Answer: 103 nM

Question: With `CS(=O)(=O)c1ccc(C#CC2CN(C(=O)N3CC[C@@H]4OCC(=O)N[C@@H]4C3)C2)cc1` [Example 186, (4aR,8aS)-6-[3-[2-(4-Methylsulfonylphenyl)ethynyl]azetidine-1-carbonyl]-4,4a,5,7,8,8a-hexahydropyrido[4,3-b][1,4]oxazin-3-one] as the molecule, how does the IC50 read?
Answer: 753 nM

Question: Which IC50 does the source give for `O=C1CO[C@H]2CCN(C(=O)N3CCC(C#Cc4ccc(Cl)cc4)CC3)C[C@H]2N1` [Example 130, (+)-(4aR,8aS)-6-[4-[2-(4-Chlorophenyl)ethynyl]piperidine-1-carbonyl]-4,4a,5,7,8,8a-hexahydropyrido[4,3-b][1,4]oxazin-3-one] here?
Answer: 82 nM

Question: For `O=C1CO[C@H]2CCN(C(=O)N3CC(C#Cc4c(F)cccc4Cl)C3)C[C@H]2N1` [Example 161, (4aR,8aS)-6-(3-((2-Chloro-6-fluorophenyl)ethynyl)azetidine-1-carbonyl)hexahydro-2H-pyrido[4,3-b][1,4]oxazin-3(4H)-one], which IC50 is on record?
Answer: 5 nM

Question: How did the IC50 turn out when `O=C1CO[C@H]2CCN(C(=O)N3CC(C#Cc4ccc(C5CC5)cc4Cl)C3)C[C@H]2N1` [Example 162, (4aR,8aS)-6-(3-((2-Chloro-4-cyclopropylphenyl)ethynyl)azetidine-1-carbonyl)hexahydro-2H-pyrido[4,3-b][1,4]oxazin-3(4H)-one] was run?
Answer: 1 nM

Question: `O=C1CO[C@H]2CCN(C(=O)N3CC(C#Cc4ccc(C(F)(F)F)cc4Cl)C3)C[C@H]2N1` [Example 200, (4aR,8aS)-6-(3-((2-Chloro-4-(trifluoromethyl)phenyl)ethynyl)azetidine-1-carbonyl)hexahydro-2H-pyrido[4,3-b][1,4]oxazin-3(4H)-one] was tested. Which IC50 did it give?
Answer: 2 nM

Question: For `N#CC1(c2ccc(C#CC3CN(C(=O)N4CC[C@@H]5OCC(=O)N[C@@H]5C4)C3)cc2)CC1` [Example 178, 1-[4-[2-[1-[(4aR,8aS)-3-Oxo-4,4a,5,7,8,8a-hexahydropyrido[4,3-b][1,4]oxazine-6-carbonyl]azetidin-3-yl]ethynyl]phenyl]cyclopropane-1-carbonitrile], which IC50 is on record?
Answer: 56 nM

Question: For `O=C1CO[C@H]2CCN(C(=O)N3CC(C#CC4(O)CCCC4)C3)C[C@H]2N1` [Example 198, (4aR,8aS)-6-[3-[2-(1-Hydroxycyclopentyl)ethynyl]azetidine-1-carbonyl]-4,4a,5,7,8,8a-hexahydropyrido[4,3-b][1,4]oxazin-3-one], which IC50 is on record?
Answer: 507 nM

Question: For `COc1ccccc1C#CC1CN(C(=O)N2CC[C@@H]3OCC(=O)N[C@@H]3C2)C1` [Example 163, (4aR,8aS)-6-(3-((2-Methoxyphenyl)ethynyl)azetidine-1-carbonyl)hexahydro-2H-pyrido[4,3-b][1,4]oxazin-3(4H)-one], which IC50 is on record?
Answer: 49 nM

Question: How did the IC50 turn out when `COc1cccc(C#CC2CN(C(=O)N3CC[C@@H]4OCC(=O)N[C@@H]4C3)C2)c1` [Example 181, (4aR,8aS)-6-[3-[2-(3-Methoxyphenyl)ethynyl]azetidine-1-carbonyl]-4,4a,5,7,8,8a-hexahydropyrido[4,3-b][1,4]oxazin-3-one] was run?
Answer: 13 nM

Question: Which IC50 does the source give for `O=C1CO[C@H]2CCN(C(=O)N3CC(C#Cc4ccc(C(F)(F)F)cc4F)C3)C[C@H]2N1` [Example 158, (4aR,8aS)-6-[3-[2-[2-Fluoro-4-(trifluoromethyl)phenyl]ethynyl]azetidine-1-carbonyl]-4,4a,5,7,8,8a-hexahydropyrido[4,3-b][1,4]oxazin-3-one] here?
Answer: 5 nM

Question: With `O=C1CO[C@H]2CCN(C(=O)N3CC(C#Cc4ccc(C(F)(F)F)c(Cl)c4)C3)C[C@H]2N1` [Example 160, (4aR,8aS)-6-(3-((3-Chloro-4-(trifluoromethyl)phenyl)ethynyl)azetidine-1-carbonyl)hexahydro-2H-pyrido[4,3-b][1,4]oxazin-3(4H)-one] as the molecule, how does the IC50 read?
Answer: 1 nM

Question: `O=C1CO[C@H]2CCN(C(=O)N3CC([S+]([O-])c4ccc(C(F)(F)F)cc4Cl)C3)C[C@H]2N1` (single isomer, unassigned) [Example 146] was tested. Which IC50 did it give?
Answer: 2720 nM

Source: US20210277020A1, “HETEROCYCLIC COMPOUNDS AS MONOACYLGLYCEROL LIPASE INHIBITORS” (Hoffmann-La Roche Inc., priority 2018, published 2021)
